Experimental data: the NIST ThermoML archive (doi:10.1016/j.fluid.2013.08.005)
Several values for one entry are separate records, joined by “and”; a condition that tells them apart may be missing. Identical values can stand only once. ± gives the expanded uncertainty stated by the source.

Tests used:
[1] = mn = molality of the nth substance listed, in mol/kg; details: 298.15 K; 101 kPa; Liquid; Alternating current cell with electrodes; m2 = 0
[2] = molar heat capacity at constant pressure; mn = molality of the nth substance listed, in mol/kg; details: 101 kPa, Liquid, Large sample (1 g) DSC, m2 = 0
[3] = molar heat capacity at constant pressure; details: 101 kPa, Liquid, Large sample (1 g) DSC

Row | SMILES | electrical conductivity [1] | molar heat capacity at constant pressure ([2]; 298.15 K) | molar heat capacity at constant pressure ([2]; 303.15 K) | molar heat capacity at constant pressure ([2]; 308.15 K) | molar heat capacity at constant pressure ([2]; 313.15 K) | molar heat capacity at constant pressure ([3]; 298.15 K) | molar heat capacity at constant pressure ([3]; 303.15 K) | molar heat capacity at constant pressure ([3]; 308.15 K) | molar heat capacity at constant pressure ([3]; 313.15 K)
1 | O [water] + CCCCCC[N+](C)(C)C.[Br-] | 0.239 ± 0.0095 S/m | 75.37 ± 1.3 J/K/mol | 75.34 ± 1.3 J/K/mol | 75.33 ± 1.3 J/K/mol | 75.34 ± 1.3 J/K/mol |  |  |  | 
2 | O [water] + CCCCCCCC[N+](C)(C)C.[Br-] |  | 75.35 ± 1.3 J/K/mol | 75.32 ± 1.3 J/K/mol | 75.32 ± 1.3 J/K/mol | 75.33 ± 1.3 J/K/mol |  |  |  | 
3 | O [water] |  |  |  |  |  | 75.37 ± 1.3 J/K/mol and 75.35 ± 1.3 J/K/mol | 75.34 ± 1.3 J/K/mol and 75.32 ± 1.3 J/K/mol | 75.33 ± 1.3 J/K/mol and 75.32 ± 1.3 J/K/mol | 75.34 ± 1.3 J/K/mol and 75.33 ± 1.3 J/K/mol
